Reference: patent US11484543B2, “Compositions and methods for diagnosing and treating diseases and disorders associated with mutant KCNJ5” (The Rockefeller University, priority 2017, dated 2022)
Substitutions are numbered along the chain they refer to.

Assays:
Assay type in all cases: cell-based
KCNJ5^L168R = target: T1, KCNJ5^L168R (Homo sapiens, UniProt P48544, L168R); assay: Cell viability assay (ATP, CellTiter-Glo): rescue of KCNJ5^L168R-induced lethality in inducible HEK293 cells; conditions: for L168R IC50 / IC50 / L168R maximum inhibition / L168R minimum inhibition: 10-point dilution 20 to 0.0391 μM, N=3, four-parameter fit; for inhibition of KCNJ5^L168R by synthesized macrolide derivatives: tested as in FIG. 7 (FIGS. 9 and 10)
T1 construct: expressed in transfected cells
T1 sequence (P48544 1-419 L168R): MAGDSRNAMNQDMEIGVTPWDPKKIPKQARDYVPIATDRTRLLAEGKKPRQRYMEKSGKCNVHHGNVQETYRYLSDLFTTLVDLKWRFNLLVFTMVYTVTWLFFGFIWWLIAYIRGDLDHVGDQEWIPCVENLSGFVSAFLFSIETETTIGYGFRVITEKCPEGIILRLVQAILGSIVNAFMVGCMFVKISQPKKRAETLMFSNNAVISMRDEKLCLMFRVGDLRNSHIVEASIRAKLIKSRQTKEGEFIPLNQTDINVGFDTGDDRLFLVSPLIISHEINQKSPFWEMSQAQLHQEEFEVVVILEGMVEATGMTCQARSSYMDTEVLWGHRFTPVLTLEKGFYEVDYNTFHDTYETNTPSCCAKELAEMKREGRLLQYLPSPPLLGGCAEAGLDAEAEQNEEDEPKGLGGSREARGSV
Protocol: WT or mutant human KCNJ5 cDNAs (Choi et al., 2011, Science 331:768-772) were subcloned into the pcDNA5/FRT/TO vector using BamHI and HindIII. Single copies of WT or mutant human KCNJ5 cDNAs expressed under the control of tetracycline-inducible promoter were introduced into HEK293 cells using the Flp-in T-Rex System (Invitrogen) according to the manufacturer's instructions. Cells were grown in selective media containing 10% Tet-system approved FBS (Clontech) until induction.
Assay plates were centrifuged and incubated overnight at 37° C. 20 nL was transferred from the compound source plate to the cell assay plate using an Aquarius (Tecan) with a 384-well pin tool (V&P Scientific). The final concentration of compound for screening was 10 μM and the final DMSO concentration was 0.1%. 1 μL of tetracycline (final concentration 1 μg/mL) was added to compound containing and negative control wells by Multidrop Combi to induce expression. 1 μL of media was added to positive control wells. Assay plates were centrifuged and incubated for 72 hours at 37° C., 5% CO2. CellTiter-Glo (Promega) was used to measure cell viability in the assay wells according to the manufacturer's instructions. 10 μL/well of CellTiter-Glo reagent was added to the assay plates using a MultiDrop Combi. The plates were shaken on a Thermomixer R (Eppendorf) at 1100 rpm for 1 minute and incubated in the dark for 10 minutes at room temperature. Luminescence was read on an Envision plate reader (PerkinElmer) with 0.3 second sampling time per well. Raw data (luminescence counts per second) was normalized to percent effect by the formula 100−(((sample−negative control mean)/(positive control mean−negative control mean))*100).
Data was analyzed using the programs Excel (Microsoft) and Prism (GraphPad). Errors are SD unless otherwise indicated in the legend. Dose-response curves were fitted with a four-parameter logistic equation: F(x)=D+(A−D)/(1+(x/C)^B), with A=minimum inhibition B=Hill's slope C=inflection point D=maximum inhibition Synthesis of Macrolide Derivatives
Cellular ATP levels were measured as a proxy for cell viability, using a commercially available luciferase assay (Crouch et al., 1993, Proc. Natl. Acad. Sci. U.S.A. 109:2533-2538).
Conditions were designed to maximize reproducibility and the signal-to-background ratios (S/B) (Zhang et al., 1999, J. Biomol. Screen 4:67-73) comparing ATP level in uninduced and induced cells. Screening was performed in 384-well plates; compounds were added 24 hours after plating, and channel expression was induced immediately after compound addition. ATP levels were measured 72 hours after induction.

KCNJ5^WT = target: T2, KCNJ5^WT (Homo sapiens, UniProt P48544); assay: Membrane potential assay (FLIPR dye) in inducible KCNJ5^WT HEK293 cells; conditions: for WT IC50: 10-point dilution 20 to 0.0391 μM, N=3, four-parameter fit; for inhibition of KCNJ5^WT by synthesized macrolide derivatives: tested as in FIG. 7 (FIGS. 9 and 10)
T2 construct: expressed in transfected cells
T2 sequence (P48544 1-419): T1 sequence (P48544 1-419 L168R) with R168L
Protocol: Single copies of WT or mutant human KCNJ5 cDNAs expressed under the control of tetracycline-inducible promoter were introduced into HEK293 cells using the Flp-in T-Rex System (Invitrogen) according to the manufacturer's instructions. Cells were grown in selective media containing 10% Tet-system approved FBS (Clontech) until induction.
20 μL of WT cells were plated into sterile black with clear bottom tissue culture-treated 384-well plates (Corning) at a density of 10000 cells/well using a Multidrop Combi. Assay plates were centrifuged at 500 rpm for 10 seconds and incubated overnight at 37° C. in a humidified 5% CO2 incubator. After the overnight incubation, 1 μL of tetracycline (final conc. 1 μg/mL) was added to all wells by Multidrop Combi to induce KCNJ5. Assay plates were centrifuged at 500 rpm for 10 seconds and incubated overnight at 37° C. in a humidified 5% CO2 incubator. The next day, 10 μL of medium was removed from each well using a PlateMate Plus (Thermo Scientific). 10 μL of Blue Formula FLIPR membrane potential dye (Molecular Devices) was added to cells using a Multichannel pipettor. Assay plates were incubated for 30 minutes. at 37° C. After incubation, 20 nL was transferred twice from the compound source plate to the cell assay plate using an Aquarius with a 384-well pin tool for a total transfer volume of 40 nL and a final DMSO concentration of 0.2%. 1 μL of 20 mM BaCl2 was added to positive control wells using a Multichannel pipettor. The assay plate was incubated 20 minutes at room temperature in the dark.
Changes in membrane potential were detected using a well-established fluorescence-based measure of membrane potential (FIG. 4).

KCNJ5^G151R = target: T3, KCNJ5^G151R (Homo sapiens, UniProt P48544, G151R); assay: cell-based; conditions: for inhibition of KCNJ5^G151R by synthesized macrolide derivatives: tested as in FIG. 7 (FIGS. 9 and 10)
T3 construct: expressed in transfected cells
T3 sequence (P48544 1-419 G151R): T1 sequence (P48544 1-419 L168R) with G151R, R168L
In short: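 Viability is read as cellular ATP by CellTiter-Glo luminescence 72 h later at 37 °C. Uninduced and induced untreated cells set 100% and 0% effect; curves use a 4-parameter logistic fit.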

[1] = 10-point dilution 20 to 0.0391 μM, N=3, four-parameter fit

Compound	L168R IC50 (KCNJ5^L168R)	WT IC50 (KCNJ5^WT)	IC50 (KCNJ5^L168R) [µM]	L168R maximum inhibition (KCNJ5^L168R) [%]	L168R minimum inhibition (KCNJ5^L168R) [%]	G151R maximum inhibition (KCNJ5^G151R; [1]) [%]	G151R minimum inhibition (KCNJ5^G151R; [1]) [%]	IC50 (KCNJ5^G151R; [1]) [µM]	inhibition of KCNJ5^L168R by synthesized macrolide derivatives (KCNJ5^L168R)	inhibition of KCNJ5^WT by synthesized macrolide derivatives (KCNJ5^WT)	inhibition of KCNJ5^G151R by synthesized macrolide derivatives (KCNJ5^G151R)	also measured
CC[C@H]1OC(=O)[C@H](C)[C@@H](O[C@H]2C[C@@](C)(OC)[C@@H](O)[C@H](C)O2)[C@H](C)[C@@H](O[C@@H]2O[C@H](C)C[C@H](N(C)C)[C@H]2O)[C@](C)(O)C[C@](C)(F)C(=O)[C@H](C)[C@@H](O)[C@]1(C)O [Flurithromycin, flurithromycin]	No fit	No fit										G151R IC50 (KCNJ5^G151R; [1]): No fit; inhibition of KCNJ5^MUT (structure-activity statement) (KCNJ5^G151R; macrolide series, dilution curves): negligible activity
CC[C@H]1OC(=O)[C@H](C)[C@@H](O[C@H]2C[C@@](C)(OC)[C@@H](O)[C@H](C)O2)[C@H](C)[C@@H](O[C@@H]2O[C@H](C)C[C@H](N(C)C(C)C)[C@H]2O)[C@@]2(C)CC(C)=C(O2)[C@H](C)[C@@H](O)[C@]1(C)O [Idremcinal, idremcinal]		No fit	1.99	66.69	−1.28	93.39	6.38	0.6				WT IC50 (KCNJ5^WT; listed as idremcinal): no dose response
CC[C@H]1OC(=O)[C@H](C)[C@@H](O[C@H]2C[C@@](C)(OC)[C@@H](O)[C@H](C)O2)[C@H](C)[C@@H](O[C@@H]2O[C@H](C)C[C@H](NC)[C@H]2O)[C@](C)(O)C[C@@H](C)/C(=N\OCOCCOC)[C@H](C)[C@@H](O)[C@]1(C)O [N-demethyl Roxithromycin, N-demethyl roxithromycin]		No fit	1.18	76.95	1.12	96.20	4.50	0.82				dose response on KCNJ5^L168R (KCNJ5^L168R; tested at 1.1, 3.3 and 10 μM): showed a dose response
CCCCN(C)[C@H]1C[C@@H](C)O[C@@H](O[C@@H]2[C@@H](C)[C@H](O[C@H]3C[C@@](C)(OC)[C@@H](O)[C@H](C)O3)[C@@H](C)C(=O)O[C@H](CC)[C@@](C)(O)[C@H](O)[C@@H](C)[C@@H](O)[C@H](C)C[C@@]2(C)O)[C@@H]1O [PLUX33, N-demethyl-9-deoxo-9-hydroxy-N-butyl-(9S)-erythromycin]									significant inhibition	no inhibition	significant inhibition	
CC[C@@H](O)[C@@](C)(O)[C@@H]1OC(=O)[C@H](C)[C@@H](O[C@H]2C[C@@](C)(OC)[C@@H](O)[C@H](C)O2)[C@H](C)[C@@H](O[C@@H]2O[C@H](C)C[C@H](N(C)C)[C@H]2O)[C@@]2(C)CC(C)=C(O2)[C@@H]1C [Pseudo Erythromycin A Enol Ether, pseudo erythromycin A enol ether]	No Fit	No fit				11.13	1.58	0.65				
N-demethyl-8,9-anhydroerythromycin A 6,9-hemiacetal [PLUX36]									significant inhibition	no inhibition	significant inhibition	
